{
  "source": "patent US9777037B2",
  "about": "“Neurosteroid compounds” (BIONATURE E. A. LTD., priority 2007, dated 2017)",
  "key": {"[1]": {"test_system": "DHEA specific membrane receptors", "assay": "[3H]DHEA competition binding on isolated PC12 cell membranes", "set-up": "species or system rat", "experimental": "PC12 rat sympathoadrenal cells were cultured in 225 cm^2 flasks and, after washing twice with PBS, they were detached from the flasks by vigorous shaking. After a centrifugation at 1500 g, they were homogenized by sonication, in a 50 mM Tris-HCl buffer pH 7.4 at 4° C., containing freshly added protease inhibitors (1 mM PMSF and 1 μg/ml aprotinin). Unbroken cells were removed by centrifugation at 1500 g (10 min at 4° C.), and membranes were collected by centrifuging at 102,000 g for 1 hr at 4° C. Membranes were washed once with Tris-HCl, briefly acidified at 4° C. (for 3 min) with 50 mM glycine (pH 5.0), and re-suspended in the same buffer. Protein content was assayed by the method of Bradford, using reagents from Bio-Rad (Hercules, Calif.). Membranes (at a final concentration of 2 mg/ml) were incubated with 5 nM [^3H]DHEA, in the absence (to determine the total binding) or presence of unlabeled neurosteroids and their synthetic spiro analogs, at concentrations varying from 10^−12 to 10^−6 M and at a final volume of 100 μl, in Tris-HCl buffer (50 mM, pH 7.4). Following a […] incubation in a water bath, at 37° C., membranes were collected on GF/B filters, prewet in 0.5% PEI solution at 4° C. The filters were washed three times with ice-cold Tris-HCl, dried, supplemented with scintillation medium (Sigma Hellas, Athens, Greece) and counted in a β-scintillation counter (Perkin Elmer, Foster City, Calif.) with 60% efficiency for Tritium."}, "[2]": {"test_system": "Bcl-2 and Bcl-xL proteins", "assay": "Western blot of anti-apoptotic Bcl-2 and Bcl-xL proteins in serum-deprived PC12 cells", "format": "cell-based, rat", "details": "10 nM neurosteroid (FIG. 4)", "experimental": "Neural-crest derived PC12 cells were cultured for 8 hours in the absence of serum, but supplemented with 10 nM of various neurosteroids. At the end of incubation cell lysates were subjected to electrophoresis through a 12% SDS-polyacrylamide gel. Then, proteins were transferred to nitrocellulose membranes, which were processed according to standard Western blotting procedures. To detect protein levels, membranes were incubated with the appropriate antibodies: Bcl-2, (Santa Cruz Biotechnology Inc., Santa Cruz, Calif., dilution 1:100) Bcl-xL (Cell Signalling Technology Inc., Beverly, Mass., dilution 1:100). A PC-based Image Analysis program was used to quantify the intensity of each band (Image Analysis, Inc., Ontario, Canada). To normalize for protein content, the blots were stripped and stained with anti-actin antibodies (Chemicon, Temecula, Calif., dilution 1:400); the concentration of each target protein was normalized versus actin."}, "[3]": {"test_system": "tyrosine hydroxylase mRNA", "assay": "Tyrosine hydroxylase (TH) RT-PCR in dopaminergic PC12 cells", "format": "cell-based, rat", "details": "dopaminergic PC12 cells (FIG. 6C)", "experimental": "Tyrosine Hydroxylase (TH) RT-PCR: Total RNA was extracted from dopaminergic PC12 cells using the Trizol Reagent (Invitrogen Life technologies, CA). One microgram of total RNA was reverse transcribed by the Thermo-Script RT-PCR System (Invitrogen) using random hexamers in a total volume of 20 μl. Two microliters of the RT product was used as a template, amplified by PCR using 2 mM MgCl2, one strength PCR buffer, 0.2 mM of sense and antisense primers, 0.2 mM dNTPs and 2.5 U AmpliTaq Gold DNA polymerase (Perkin Elmer ABD, Foster City, Calif.) in a final reaction volume of 50 μl. PCR was performed in a Perkin Elmer DNA Thermal Cycler. Primers for TH were 5′-[…]-3′ (sense), and 5-[…]-3 (antisense) and for G3PDH were, 5′-[…]-3′ (sense), and 5′-[…]-3′ (antisense). Oligonucleotides were synthesized by MWG-Biotech AG (Munich, Germany). After reverse transcription, the cDNA product was amplified by PCR, at 33 cycles. The cycle number (33) was chosen such that amplification of the products was in the linear range with respect to the amount of input cDNA. PCR for G3PDH was performed in parallel to assure good quality of RNA and cDNA preparations. Each cycle consisted of 60 s at 92° C. for denaturation, 120 s at 53° C. for annealing, and 180 s at 72° C. for extension (60 s at 98° C., 90 s at 55° C., and 150 s at 72° C. for G3PDH respectively). 10 μl of the amplified products (368 bp for TH and 983 bp for G3PDH) were separated on a 2% agarose gel and visualized by ethidium bromide staining."}},
  "data": [
    {"smiles": "C[C@]12CC[C@H](O)CC1=CCC1C2CC[C@@]2(C)C1CC[C@@]21CO1", "note": "(stereo partly drawn) [BNN-50, 17β-spiro-[5-androsten-17,2′-oxiran]-3β-ol]", "values": [
      {"measurement": "displacement of specific [3H]DHEA binding", "setting": "[1]; at 1 μM, PC12 cell membranes", "result": "approximately 60%"},
      {"measurement": "Kd", "setting": "[1]; isolated PC12 cell membranes, 5 nM [3H]DHEA (FIG. 5)", "result": 16, "unit": "pM"},
      {"measurement": "levels of anti-apoptotic Bcl-2 and Bcl-xL proteins", "setting": "[2]", "result": "preventing this effect"},
      {"measurement": "induction of tyrosine hydroxylase mRNA", "setting": "[3]", "result": "strong induction"}
    ]}
  ]
}
